Results published in patent US20220267350A1, “ADENOSINE RECEPTOR ANTAGONIST” (XIAMEN BIOTIME BIOTECHNOLOGY CO., LTD., priority 2019, published 2022).

Tests used:
A2A receptor = A2A receptor (Homo sapiens, UniProt P29274); test: A2A receptor antagonist functional assay (cAMP, NECA at EC80); type: cell-based; details: A2A cell line (PerkinElmer ES-011-C); 5'-N-ethylcarboxamidoadenosine at EC80; cAMP readout; read-out: A2A Antagonistic function IC50
Procedure: (§1) The A2A cell line was derived from PerkinElmer (Product ID: ES-011-C); the A2B cell line was derived from PerkinElmer (Product ID: ES-013-C). The experimental procedure was referred to ACS Medicinal Chemistry Letters (2011) 2, 213-218; the specific test was completed by Pharmaron Beijing Co., Ltd. with the following steps: 10 nL of compound stock in DMSO (10 mM) followed by 10 μL of A2A or A2B cell suspension (30000 cells/mL) were transferred to assay wells of a 384-well plate at room temperature and incubated for 20 minutes at room temperature. The corresponding amount of 5′-N-ethylcarboxamidoadenosine at EC80 activation concentration was transferred to each test well, and incubated for another 30 minutes at 37° C., 5% CO2, 95% humidity, then Eu-cAMP tracer working solution and Ulight-anti-cAMP working solution were added to the cell culture plate at 5 uL/well in sequence, and the cell plate fluorescence was read with Envision (excitation wavelength: 320 nm, emission wavelength: 665 nm and 615 nm). The corresponding inhibition rate in each well was obtained according to the following formula, and a sigmoidal dose-inhibition rate curve was plotted using a non-linear regression model to calculate the IC50 value.

A2B receptor = target: T1, A2B receptor (Homo sapiens, UniProt P29275); test: A2B receptor antagonist functional assay (cAMP, NECA at EC80); type: cell-based; details: A2B cell line (PerkinElmer ES-013-C); 5'-N-ethylcarboxamidoadenosine at EC80; cAMP readout; read-out: A2B Antagonistic function IC50
T1 sequence (P29275 1-332): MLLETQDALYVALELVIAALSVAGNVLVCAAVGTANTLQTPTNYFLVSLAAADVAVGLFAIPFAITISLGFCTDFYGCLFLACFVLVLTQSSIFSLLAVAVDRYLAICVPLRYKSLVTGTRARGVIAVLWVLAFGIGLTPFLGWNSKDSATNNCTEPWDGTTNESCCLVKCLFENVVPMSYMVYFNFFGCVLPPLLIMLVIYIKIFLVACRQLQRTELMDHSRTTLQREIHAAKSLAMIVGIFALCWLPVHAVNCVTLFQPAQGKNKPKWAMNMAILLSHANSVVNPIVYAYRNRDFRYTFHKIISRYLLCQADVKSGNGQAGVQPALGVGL
Procedure: as §1

A2A receptor, sequence (P29274 whole entry): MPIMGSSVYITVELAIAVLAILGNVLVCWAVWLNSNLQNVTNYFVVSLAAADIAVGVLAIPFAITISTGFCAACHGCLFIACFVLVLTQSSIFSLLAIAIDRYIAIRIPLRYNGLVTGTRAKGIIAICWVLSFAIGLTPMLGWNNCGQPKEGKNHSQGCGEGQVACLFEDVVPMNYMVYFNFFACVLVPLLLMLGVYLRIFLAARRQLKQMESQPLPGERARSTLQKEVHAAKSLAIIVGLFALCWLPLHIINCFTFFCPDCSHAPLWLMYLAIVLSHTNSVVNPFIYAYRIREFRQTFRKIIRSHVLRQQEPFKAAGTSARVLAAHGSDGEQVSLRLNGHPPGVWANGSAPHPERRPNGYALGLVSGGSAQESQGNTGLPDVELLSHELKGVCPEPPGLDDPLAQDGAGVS

COc1cccc(Cc2noc3c(-c4ccc(C)o4)nc(N)nc23)c1 [Compound 1]
IC50 (A2A receptor): 3.8 nM
IC50 (A2B receptor): 149 nM

Cc1ccc(-c2nc(N)nc3c(Cc4ccc(F)cc4)noc23)o1 [Compound 2]
IC50 (A2A receptor): 7 nM

COc1ccc(Cc2noc3c(-c4ccc(C)o4)nc(N)nc23)cc1 [Compound 3]
IC50 (A2A receptor): 120 nM

COc1ccccc1Cc1noc2c(-c3ccc(C)o3)nc(N)nc12 [Compound 4]
IC50 (A2A receptor): 6.9 nM

Cc1ccc(-c2nc(N)nc3c(Cc4ccc(Cl)cc4)noc23)o1 [Compound 5]
IC50 (A2A receptor): 31.8 nM

Cc1ccc(-c2nc(N)nc3c(Cc4cccc(Cl)c4)noc23)o1 [Compound 6]
IC50 (A2A receptor): 3.7 nM

Cc1ccc(-c2nc(N)nc3c(Cc4cccc(O)c4)noc23)o1 [Compound 7]
IC50 (A2A receptor): 11 nM
IC50 (A2B receptor): 11 nM

Cc1ccc(-c2nc(N)nc3c(Cc4ccc(O)cc4)noc23)o1 [Compound 8]
IC50 (A2A receptor): 80 nM

Cc1ccc(-c2nc(N)nc3c(Cc4ccccc4O)noc23)o1 [Compound 9]
IC50 (A2A receptor): 10.2 nM
